# Source: patent publication US20250346606A1, “CAMPTOTHECIN COMPOUND, PREPARATION METHOD THEREFOR, AND APPLICATION THEREOF” (SICHUAN KELUN-BIOTECH BIOPHARMACEUTICAL CO., LTD., priority 2021, published 2025)
# Where two headings read alike, the source gives them in different places.
# Tests used:
# [1] = tested on: HT29 cells; test: Inhibitory effect of compounds on HT29 cell proliferation; assay type: cell-based, Human; settings: read-out: IC50, inhibitory activity on HT29 cell proliferation
# Description: (1) Cell plating: First, tumor cells HT29 were cultured in corresponding medium, then digested with trypsin, centrifuged, resuspended, and counted, and the cells were adjusted to an appropriate concentration for plating.
# (§1) Co-incubation of the compound of the present disclosure and tumor cells: after the cells adhered to the wall, the medium was removed, and the diluted bioactive molecule (the compound of the present disclosure) was added to the wells of the above plate, and incubated for 72 h.
# (§2) In vitro cell viability detection: After the incubation, 50 μL of Cell Counting-Lite™ 2.0 reagent (Vazyme/Novazyme) was added to each well, shaken and mixed well in the dark, reacted for 10 minutes, and then the detection was carried out with a microplate reader (manufacturer: BMG, Model: PHERAStar-FS) for reading. The background RLU was obtained by using cell-free medium (with Cell Counting-Lite™), and the vehicle RLU was obtained by using cell-containing medium (with Cell Counting-Lite™). Cell inhibition rate=1−(sample RLU−background RLU)/(solvent RLU−background RLU)×100%. According to the four-parameter model fitting curve, the half maximal inhibitory concentration (IC50) of the compound was calculated, and the detection results were shown in Table 2.
# [2] = tested on: HCC1806 cells; test: Inhibitory effect of compounds on HCC1806 cell proliferation; assay type: cell-based, Human
# Description: (1) Cell plating: First, tumor cells HCC1806 were cultured in corresponding medium, then digested with trypsin, centrifuged, resuspended, and counted, and the cells were adjusted to an appropriate concentration for plating.
# as §1
# as §2, with “Table 6.” for “Table 2.”
# [3] = tested on: NCI-H358 cells; test: Inhibitory effect of compounds on NCI-H358 cell proliferation; assay type: cell-based, Human
# Description: (1) Cell plating: First, tumor cells NCI-H358 were cultured in corresponding medium, then digested with trypsin, centrifuged, resuspended, and counted, and the cells were adjusted to an appropriate concentration for plating.
# as §1
# as §2, with “Table 10.” for “Table 2.”
# [4] = tested on: MDA-MB-453 cells; test: Inhibitory effect of compounds on MDA-MB-453 cell proliferation; assay type: cell-based; settings: MDA-MB-453 human breast cancer cells, 72 h incubation, Cell Counting-Lite 2.0
# Description: (1) Cell plating: First, tumor cells MDA-MB-453 were cultured in corresponding medium, then digested with trypsin, centrifuged, resuspended, and counted, and the cells were adjusted to an appropriate concentration for plating.
# as §1
# as §2, with “Table 22.” for “Table 2.”
# [5] = tested on: NCI-N87 cells; test: Inhibitory effect of compounds on NCI-N87 cell proliferation; assay type: cell-based, Human
# Description: (1) Cell plating: First, tumor cells NCI-N87 were cultured in corresponding medium, then digested with trypsin, centrifuged, resuspended, and counted, and the cells were adjusted to an appropriate concentration for plating.
# as §1
# as §2, with “Table 12.” for “Table 2.”
# [6] = read-out: IC50, inhibitory activity on HCC1806 cell proliferation, HCC1806 human breast squamous carcinoma cells, 72 h incubation, Cell Counting-Lite 2.0
# [7] = read-out: IC50, inhibitory activity on NCI-H358 cell proliferation, NCI-H358 human non-small cell lung cancer cells, 72 h incubation, Cell Counting-Lite 2.0
# [8] = read-out: IC50, inhibitory activity on NCI-N87 cell proliferation, NCI-N87 human gastric cancer cells, 72 h incubation, Cell Counting-Lite 2.0
# [9] = Homo sapiens, NCI-H358, 72 h, read-out: IC50, inhibitory activity on NCI-H358 cell proliferation, NCI-H358 human non-small cell lung cancer cells, 72 h incubation, Cell Counting-Lite 2.0
# [10] = Homo sapiens, NCI-N87, 72 h, read-out: IC50, inhibitory activity on NCI-N87 cell proliferation, NCI-N87 human gastric cancer cells, 72 h incubation, Cell Counting-Lite 2.0
# [11] = HCC1806 human breast squamous carcinoma cells, 72 h incubation, Cell Counting-Lite 2.0, read-out: IC50, inhibitory activity on HCC1806 cell proliferation
# [12] = NCI-H358 human non-small cell lung cancer cells, 72 h incubation, Cell Counting-Lite 2.0, read-out: IC50, inhibitory activity on NCI-H358 cell proliferation
# [13] = NCI-N87 human gastric cancer cells, 72 h incubation, Cell Counting-Lite 2.0, read-out: IC50, inhibitory activity on NCI-N87 cell proliferation
# [14] = Homo sapiens, HCC1806, 72 h, read-out: IC50, inhibitory activity on HCC1806 cell proliferation, HCC1806 human breast squamous carcinoma cells, 72 h incubation, Cell Counting-Lite 2.0
smiles,measurement,setting,value
"CC[C@@]1(O)C(=O)OCc2c1cc1n(c2=O)Cc2c-1nc1cc(Cl)c(C)c3c1c2[C@H](NC(=O)[C@H](O)C1CC1)CC3 [Example 5 (2-12-D), (2R)—N-((1R,9S)-5-chloro-9-ethyl-9-hydroxy-4-methyl-10,13-dioxo-2,3,9,10,13,15-hexahydro-1H,12H-benzo[de]pyrano[3′,4′:6,7]indolizino[1,2-b]quinolin-1-yl)-2-cyclopropyl-2-hydroxyacetamide]",IC50,"[1]; Homo sapiens, HT-29, 72 h",3.29 nM
"CC[C@@]1(O)C(=O)OCc2c1cc1n(c2=O)Cc2c-1nc1cc(Cl)c(C)c3c1c2[C@@H](NCC(C)(C)O)CC3 [Example 6 (2-17-A), N-((1S,9S)-5-chloro-9-ethyl-9-hydroxy-4-methyl-10,13-dioxo-2,3,9,10,13,15-hexahydro-1H,12H-benzo[de]pyrano[3′,4′:6,7]indolizino[1,2-b]quinolin-1-yl)-2-hydroxy-2-methylpropylamine]",IC50,"[1]; Homo sapiens, HT-29, 72 h",1.24 nM
"CC[C@@]1(O)C(=O)OCc2c1cc1n(c2=O)Cc2c-1nc1cc(F)c(Cl)c3c1c2C(NC(=O)C(O)C1CC1)CC3 (single isomer, unassigned) [Example 16 (3-12-D)]",IC50,[2]; [6],1.53 nM
same,IC50,[3]; [7],20.8 nM
same,IC50,[4],3.98 nM
same,IC50,[5]; [8],3.03 nM
"CC[C@@]1(O)C(=O)OCc2c1cc1n(c2=O)Cc2c-1nc1cc(F)c(C)cc1c2CCN(C(=O)CO)C(C)C [Example 10 (4-12), (S)—N-(2-(4-ethyl-8-fluoro-4-hydroxy-9-methyl-3,14-dioxo-3,4,12,14-tetrahydro-1H-pyrano[3′,4′:6,7]indolizino[1,2-b]quinolin-11-yl)ethyl)-2-hydroxy-N-isopropylacetamide]",IC50,"[1]; HT-29, HT29 human colon cancer cells, 72 h incubation, Cell Counting-Lite 2.0",4.79 nM
"CC[C@@]1(O)C(=O)OCc2c1cc1n(c2=O)Cc2c-1nc1cc(F)c(Cl)c3c1c2[C@@H](NC[C@H](C)O)CC3 (single isomer, unassigned) [Example 17 (3-7-A)]",IC50,[3]; [9],49.4 nM
same,IC50,"[4]; Homo sapiens, MDA-MB-453, 72 h",6.23 nM
same,IC50,[5]; [10],5.32 nM
"CC[C@@]1(O)C(=O)OCc2c1cc1n(c2=O)Cc2c-1nc1cc(Cl)c(C)c3c1c2[C@H](NC[C@@H](C)O)CC3 [Example 24 (2-27-B), (2R)—N-((1R,9S)-5-chloro-9-ethyl-9-hydroxy-4-methyl-10,13-dioxo-2,3,9,10,13,15-hexahydro-1H,12H-benzo[de]pyrano[3′,4:6,7]indolizino[1,2-b]quinolin-1-yl)-2-hydroxypropylamine]",IC50,[2]; [11],3.93 nM
same,IC50,[3]; [12],69.1 nM
same,IC50,[5]; [13],14.7 nM
CC[C@@]1(O)C(=O)OCc2c1cc1n(c2=O)Cc2c-1nc1cc(F)c(Cl)c3c1c2[C@@H](NC(=O)C1(O)CC1)CC3 [Example 18 (3-17-A)],IC50,[2]; [11],1.7 nM
same,IC50,[3]; [12],13.3 nM
same,IC50,[4],3.32 nM
same,IC50,[5]; [13],3.01 nM
"CC[C@@]1(O)C(=O)OCc2c1cc1n(c2=O)Cc2c-1nc1cc(F)c(Cl)c3c1c2C(NC(=O)C(O)C1CC1)CC3 (single isomer, unassigned) [Example 16 (3-12-B)]",IC50,[2]; [6],1.76 nM
same,IC50,[3]; [7],19.8 nM
same,IC50,[4],4.32 nM
same,IC50,[5]; [8],3.45 nM
"CC[C@@]1(O)C(=O)OCc2c1cc1n(c2=O)Cc2c-1nc1cc(F)c(Cl)c3c1c2[C@H](N)CC3 (single isomer, unassigned) [Example 8 (3-1-B)]",IC50,"[1]; Homo sapiens, HT-29, 72 h",0.71 nM
same,IC50,[5]; [10],1.34 nM
"CC[C@@]1(O)C(=O)OCc2c1cc1n(c2=O)Cc2c-1nc1cc(F)c(Cl)c3c1c2C(NC(=O)C(O)C1CC1)CC3 (single isomer, unassigned) [Example 16 (3-12-C)]",IC50,[2]; [6],1.91 nM
same,IC50,[3]; [7],28.3 nM
same,IC50,[4],5.52 nM
same,IC50,[5]; [8],3.99 nM
"CC[C@@]1(O)C(=O)OCc2c1cc1n(c2=O)Cc2c-1nc1cc(Cl)c(C)c3c1c2[C@H](NC(=O)CO)CC3 [Example 3 (2-2-B), N-((1R,9S)-5-chloro-9-ethyl-9-hydroxy-4-methyl-10,13-dioxo-2,3,9,10,13,15-hexahydro-1H,12H-benzo[de]pyrano[3′,4′:6,7]indolizino[1,2-b]quinolin-1-yl)-2-hydroxyacetamide]",IC50,"[1]; Homo sapiens, HT-29, 72 h",7.52 nM
"CC[C@@]1(O)C(=O)OCc2c1cc1n(c2=O)Cc2c-1nc1cc(F)c(Cl)c3c1c2[C@@H](NC[C@@H](C)O)CC3 (single isomer, unassigned) [Example 25 (3-26-A)]",IC50,[2]; [14],1.27 nM
same,IC50,[3]; [9],31.6 nM
same,IC50,"[4]; Homo sapiens, MDA-MB-453, 72 h",3.95 nM
same,IC50,[5]; [10],1.23 nM
"CC[C@@]1(O)C(=O)OCc2c1cc1n(c2=O)Cc2c-1nc1cc(F)c(Cl)c3c1c2[C@@H](N)CC3 (single isomer, unassigned) [Example 8 (3-1-A)]",IC50,"[1]; Homo sapiens, HT-29, 72 h",0.16 nM
same,IC50,[5]; [10],0.37 nM
"CC[C@@]1(O)C(=O)OCc2c1cc1n(c2=O)Cc2c-1nc1cc(F)c(Cl)c3c1c2[C@H](NC[C@@H](C)O)CC3 (single isomer, unassigned) [Example 25 (3-26-B)]",IC50,[2]; [14],4.93 nM
same,IC50,[5]; [10],25.3 nM
"CC[C@@]1(O)C(=O)OCc2c1cc1n(c2=O)Cc2c-1nc1cc(F)c(C)c3c1c2[C@@](C)(NC(=O)C1(O)CC1)CC3 (single isomer, unassigned) [Example 14 (5-16-A)]",IC50,"[1]; Homo sapiens, HT-29, 72 h",3.87 nM
"CC[C@@]1(O)C(=O)OCc2c1cc1n(c2=O)Cc2c-1nc1cc(Cl)c(C)c3c1c2[C@H](NCC(C)(C)O)CC3 [Example 6 (2-17-B), N-((1R,9S)-5-chloro-9-ethyl-9-hydroxy-4-methyl-10,13-dioxo-2,3,9,10,13,15-hexahydro-1H, 12H-benzo[de]pyrano[3′,4′:6,7]indolizino[1,2-b]quinolin-1-yl)-2-hydroxy-2-methylpropylamine]",IC50,"[1]; Homo sapiens, HT-29, 72 h",1.59 nM
